The experiment concerns the target c-fms (Homo sapiens, UniProt P07333). The experiment can be described thus: c-fms autophosphorylation, fluorescence polarization competition immunoassay. Type of experiment: biochemical. The settings on record: 10 nM c-fms, 1 mM ATP; for inhibition at 0.1 µM: test concentration 0.1 μM, read-out: c-fms Autophosphorylation Percent Inhibition, % @ 0.1 μM; for inhibition at 1 µM: test concentration 1 μM, read-out: c-fms Autophosphorylation Percent Inhibition, % @ 1 μM. Here is the method:
The assay buffer used was 100 mM 4-(2-hydroxyethyl)piperazine 1-ethanesulfonic acid (HEPES), pH 7.5, 1 mM 1,4-dithio-DL-threitol (DTT), 0.01% (v/v) Tween-20. Compounds were diluted in assay buffer containing 4% dimethylsulfoxide (DMSO) just prior to the assay. To each well, 5 μL of compound were added followed by the addition of 3 μL of a mix containing 33 nM c-fms and 16.7 mM MgCl2 (Sigma) in assay buffer. The kinase reaction was initiated by adding 2 μL of 5 mM ATP (Sigma) in assay buffer. The final concentrations in the assay were 10 nM c-fms, 1 mM ATP, 5 mM MgCl2, 2% DMSO. Control reactions were ran in each plate: in positive and negative control wells, assay buffer (made 4% in DMSO) was substituted for the compound; in addition, positive control wells received 1.2 μL of 50 mM ethylenediaminetetraaceticacid (EDTA).
The plates were incubated at room temperature for 45 min. At the end of the incubation, the reaction was quenched with 1.2 μL of 50 mM EDTA (EDTA was not added to the positive control wells at this point; see above). Following a 5-min incubation, each well received 10 μL of a 1:1:3 mixture of anti-phosphotyrosine antibody, 10X, PTK green tracer, 10X (vortexed), FP dilution buffer, respectively (all from PanVera, cat. # P2837). The plate was covered, incubated for 30 min at room temperature and the fluorescence polarization was read on the Analyst. The instrument settings were: 485 nm excitation filter; 530 nm emission filter; Z height: middle of well; G factor: 0.93.
The percent inhibition is shown in Table 1 at the indicated test concentration. The IC50 shown in Table 2 are averages of three independent measurements.
A general note: In fluorescence polarisation assays a small probe gives low polarisation when free and higher when bound to something large.

SMILES strings stand for the structures.

A word on the inhibition: it is the drop in the measured response relative to a control, in per cent. What is called IC50 is the concentration that gives 50% inhibition. Higher therefore signals lower potency.

Sequence of c-fms (P07333 20-972): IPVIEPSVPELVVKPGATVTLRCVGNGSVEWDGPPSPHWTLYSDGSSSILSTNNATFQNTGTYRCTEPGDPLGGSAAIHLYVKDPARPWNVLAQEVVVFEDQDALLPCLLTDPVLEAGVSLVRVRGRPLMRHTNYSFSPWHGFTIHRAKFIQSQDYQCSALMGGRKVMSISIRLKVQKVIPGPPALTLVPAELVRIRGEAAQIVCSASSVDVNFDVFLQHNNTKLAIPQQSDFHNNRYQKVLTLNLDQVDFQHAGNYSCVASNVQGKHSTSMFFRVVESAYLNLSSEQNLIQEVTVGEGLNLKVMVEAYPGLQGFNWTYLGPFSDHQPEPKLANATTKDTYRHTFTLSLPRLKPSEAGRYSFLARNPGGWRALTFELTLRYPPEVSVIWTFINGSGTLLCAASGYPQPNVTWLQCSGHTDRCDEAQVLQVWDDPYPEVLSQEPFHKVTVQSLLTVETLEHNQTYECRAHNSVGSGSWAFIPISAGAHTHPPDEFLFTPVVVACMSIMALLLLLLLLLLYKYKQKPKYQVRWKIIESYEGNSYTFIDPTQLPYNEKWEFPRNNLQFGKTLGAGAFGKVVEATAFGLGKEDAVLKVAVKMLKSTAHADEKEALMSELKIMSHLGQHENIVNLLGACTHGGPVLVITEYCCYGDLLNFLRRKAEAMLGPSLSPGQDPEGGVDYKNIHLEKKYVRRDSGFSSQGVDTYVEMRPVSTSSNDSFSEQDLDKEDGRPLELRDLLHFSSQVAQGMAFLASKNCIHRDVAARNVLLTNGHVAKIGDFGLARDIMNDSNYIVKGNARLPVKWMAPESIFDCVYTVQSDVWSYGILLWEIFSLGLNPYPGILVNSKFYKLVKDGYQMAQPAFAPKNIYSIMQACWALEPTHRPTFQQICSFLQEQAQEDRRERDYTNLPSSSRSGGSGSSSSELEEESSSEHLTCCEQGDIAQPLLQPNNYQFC

As for `CNC(=O)c1cn(-c2ccc3c(c2)CCC3)c2nc(NCCCN(C)C)ncc2c1=O` [Cpd 12, 2-(3-Dimethylamino-propylamino)-8-indan-5-yl-5-oxo-5,8-dihydro-pyrido[2,3-d]pyrimidine-6-carboxylic acid methylamide], the inhibition at 0.1 µM was found to be 2% and the inhibition at 1 µM was 13%.

For `CONC(=O)c1cn(C2CCCCC2)c2nc(NCCCn3ccnc3)ncc2c1=O` [Cpd 41, 8-Cyclohexyl-2-(3-imidazol-1-yl-propylamino)-5-oxo-5,8-dihydro-pyrido[2,3-d]pyrimidine-6-carboxylic acid methoxy-amide], the inhibition at 0.1 µM stood at 22% and the inhibition at 1 µM came out at 45%.

As for `COc1ccc(CCNc2ncc3c(=O)c(C(N)=O)cn(C4CCCCC4)c3n2)cc1` [Cpd 37, 8-Cyclohexyl-2-[2-(4-methoxy-phenyl)-ethylamino]-5-oxo-5,8-dihydro-pyrido[2,3-d]pyrimidine-6-carboxylic acid amide], the inhibition at 0.1 µM was found to be 29% and the inhibition at 1 µM is 41%.

In the case of `CN(C)CCCNc1ncc2c(=O)c(C(N)=O)cn(C3CCCCC3)c2n1` [Cpd 29, 8-Cyclohexyl-2-(3-dimethylamino-propylamino)-5-oxo-5,8-dihydro-pyrido[2,3-d]pyrimidine-6-carboxylic acid amide], the inhibition at 0.1 µM was determined as 22% and the inhibition at 1 µM amounted to 65%.

In turn, `CN(C)CCCNc1ncc2c(=O)c(C(N)=O)cn(-c3ccc4c(c3)CCC4)c2n1` [Cpd 6, 2-(3-Dimethylamino-propylamino)-8-indan-5-yl-5-oxo-5,8-dihydro-pyrido[2,3-d]pyrimidine-6-carboxylic acid amide] gave an IC50 (average of three independent measurements) of 7.1 µM.

For `CONC(=O)c1cn(-c2ccc3c(c2)CCC3)c2nc(NCCCN3CCCC3=O)ncc2c1=O` [Cpd 22, 8-Indan-5-yl-5-oxo-2-[3-(2-oxo-pyrrolidin-1-yl)-propylamino]-5,8-dihydro-pyrido[2,3-d]pyrimidine-6-carboxylic acid methoxy-amide], the inhibition at 0.1 µM turned out to be 40% and the inhibition at 1 µM stood at 72%.

For the compound `CNC(=O)c1cn(C2CCCCC2)c2nc(NCCOC)ncc2c1=O` [Cpd 57, 8-Cyclohexyl-2-(2-methoxy-ethylamino)-5-oxo-5,8-dihydro-pyrido[2,3-d]pyrimidine-6-carboxylic acid methylamide], the inhibition at 0.1 µM was determined as 16% and the inhibition at 1 µM came to 20%.

Consider `CN1CCN(CCCNc2ncc3c(=O)c(C(N)=O)cn(-c4ccc5c(c4)CCC5)c3n2)CC1` [Cpd 1, 8-Indan-5-yl-2-[4-(4-methyl-piperazin-1-yl)-propylamino]-5-oxo-5,8-dihydro-pyrido[2,3-d]pyrimidine-6-carboxylic acid amide], for which the inhibition at 0.1 µM was 24% and the inhibition at 1 µM worked out at 69.1%.

On to `CONC(=O)c1cn(C2CCCCC2)c2nc(NCCN3CCOCC3)ncc2c1=O` [Cpd 51, 8-Cyclohexyl-2-(2-morpholin-4-yl-ethylamino)-5-oxo-5,8-dihydro-pyrido[2,3-d]pyrimidine-6-carboxylic acid methoxy-amide], for which the inhibition at 0.1 µM was found to be 17% and the inhibition at 1 µM is 44%.

`CNC(=O)c1cn(C2CCCCC2)c2nc(NCc3cc(OC)cc(OC)c3)ncc2c1=O` [Cpd 61, 8-Cyclohexyl-2-(3,5-dimethoxy-benzylamino)-5-oxo-5,8-dihydro-pyrido[2,3-d]pyrimidine-6-carboxylic acid methylamide]: the inhibition at 0.1 µM worked out at 3% and the inhibition at 1 µM turned out to be 21%.

For the compound `COCCNc1ncc2c(=O)c(C(N)=O)cn(C3CCCCC3)c2n1` [Cpd 35, 8-Cyclohexyl-2-(2-methoxy-ethylamino)-5-oxo-5,8-dihydro-pyrido[2,3-d]pyrimidine-6-carboxylic acid amide], the inhibition at 0.1 µM came out at 29% and the inhibition at 1 µM turned out to be 67%.
